In ChEMBL document CHEMBL2390939, “Synthesis and in vitro cytotoxicity of andrographolide-19-oic acid analogues as anti-cancer agents” (Bioorg Med Chem Lett, 2013):

Key:
[1] = system: MCF7; experiment: Cytotoxicity against human MCF7 cells assessed as growth inhibition after 72 hrs by MTS assay; assay type: functional, cell-based; details: MCF7, 72 h
[2] = system: HCT-116; experiment: Cytotoxicity against human HCT116 cells assessed as growth inhibition after 72 hrs by MTS assay; assay type: functional, cell-based; details: HCT-116, 72 h
[3] = system: HCT-116; experiment: Ratio of cis-platin IC50 to compound IC50 for growth inhibition of human HCT116 cells; assay type: functional

SMILES | IC50 [1] [µM] | IC50 [2] [µM] | Ratio IC50 [3]
C=C1CC[C@H]2[C@@](C)(CC[C@@H](OC(C)=O)[C@@]2(C)C(=O)OCc2ccccc2)[C@@H]1C/C=C1/C(=O)OC[C@H]1OC(C)=O | 6.28 | 1.07 | –
C=C1CC[C@H]2[C@@](C)(CC[C@@H](O)[C@@]2(C)C(=O)O)[C@@H]1C/C=C1/C(=O)OC[C@H]1OC(C)=O | 33.3 | 25.2 | –
C=C1CC[C@H]2[C@@](C)(CC[C@@H](O)[C@@]2(C)C(=O)O)[C@@H]1C/C=C1/C(=O)OC[C@H]1OC(=O)c1ccccc1 | > 40.2 | 13.8 | –
C=C1CC[C@H]2[C@@](C)(CC[C@@H](OC(C)=O)[C@@]2(C)C(=O)O)[C@@H]1C/C=C1/C(=O)OC[C@H]1OC(=O)/C=C/c1ccc(OC)cc1 | 33.9 | 9.73 | –
C=C1CC[C@H]2[C@@](C)(CC[C@@H](O)[C@@]2(C)C(=O)O)[C@@H]1C/C=C1/C(=O)OC[C@H]1OC(=O)/C=C/c1ccc(OC)cc1 | 8.86 | 1.92 | –
C=C1CC[C@H]2[C@@](C)(CC[C@@H](OC(C)=O)[C@@]2(C)C(=O)OC)[C@@H]1C/C=C1/C(=O)OC[C@H]1OC(=O)c1ccccc1 | 10.6 | 3.01 | –
C=C1CC[C@H]2[C@@](C)(CC[C@@H](OC(C)=O)[C@@]2(C)C(=O)O)[C@@H]1C/C=C1/C(=O)OC[C@H]1OC(C)=O | > 4.1 | 2.19 | –
C=C1CC[C@H]2[C@@](C)(CC[C@@H](OC(C)=O)[C@@]2(C)C(=O)OC)[C@@H]1C/C=C1/C(=O)OC[C@H]1OC(=O)/C=C/c1ccc(OC)cc1 | 14.5 | 2.78 | –
C=C1CC[C@H]2[C@@](C)(CC[C@@H](OC(C)=O)[C@@]2(C)C(=O)OCc2ccccc2)[C@@H]1C/C=C1/C(=O)OC[C@H]1OC(=O)/C=C/c1ccc(OC)cc1 | 6.13 | 2.83 | –
C=C1CC[C@H]2[C@@](C)(CC[C@@H](OC(C)=O)[C@@]2(C)C(=O)OCc2ccccc2)[C@@H]1C/C=C1/C(=O)OC[C@H]1OC(=O)c1ccccc1 | 8.37 | 1.18 | 11
C=C1CC[C@H]2[C@@](C)(CC[C@@H](OC(C)=O)[C@@]2(C)C(=O)OC)[C@@H]1C/C=C1/C(=O)OC[C@H]1OC(C)=O | 6.4 | 2.02 | –
C=C1CC[C@@H]2[C@](C)(CO)[C@H](O)CC[C@@]2(C)[C@@H]1C/C=C1/C(=O)OC[C@H]1O [ANDROGRAPHOLIDE] | > 66 | 23.9 | –
C=C1CC[C@H]2[C@@](C)(CC[C@@H](OC(C)=O)[C@@]2(C)C(=O)O)[C@@H]1C/C=C1/C(=O)OC[C@H]1OC(=O)c1ccccc1 | 38.2 | 17.8 | –
